Patent US12479849B2, “EGFR inhibitors for the treatment of cancer” (Hoffmann-La Roche Inc., priority 2019, dated 2025)
pIC50: −log10 of the molar value.

Biological target: T1, EGFR TMLRCS (Homo sapiens, UniProt P00533, C797S/L858R/T790M)
T1 construct: host or cells: BaF3-TMLRCS (Ba/F3 cells, kept under puromycin selection)
Test: HTRF Phospho EGFR TMLRCS Assay (Cellular)
Type: cell-based
Conditions: BaF3-TMLRCS cell line, 4 hours incubation, Phospho-EGFR HTRF readout
Summary of the method: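 BaF3 cells expressing EGFR L858R/T790M/C797S, 20000/well, treated with compound in dose response for 4 h at 37 °C, 5% CO2. After lysis, phospho-EGFR detected by HTRF with cryptate and d2 antibodies over 4 h at room temperature. Signal taken as 665/616 nm ratio ×10000, normalized.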

T1 sequence (P00533 25-1210 T790M/C797S/L858R): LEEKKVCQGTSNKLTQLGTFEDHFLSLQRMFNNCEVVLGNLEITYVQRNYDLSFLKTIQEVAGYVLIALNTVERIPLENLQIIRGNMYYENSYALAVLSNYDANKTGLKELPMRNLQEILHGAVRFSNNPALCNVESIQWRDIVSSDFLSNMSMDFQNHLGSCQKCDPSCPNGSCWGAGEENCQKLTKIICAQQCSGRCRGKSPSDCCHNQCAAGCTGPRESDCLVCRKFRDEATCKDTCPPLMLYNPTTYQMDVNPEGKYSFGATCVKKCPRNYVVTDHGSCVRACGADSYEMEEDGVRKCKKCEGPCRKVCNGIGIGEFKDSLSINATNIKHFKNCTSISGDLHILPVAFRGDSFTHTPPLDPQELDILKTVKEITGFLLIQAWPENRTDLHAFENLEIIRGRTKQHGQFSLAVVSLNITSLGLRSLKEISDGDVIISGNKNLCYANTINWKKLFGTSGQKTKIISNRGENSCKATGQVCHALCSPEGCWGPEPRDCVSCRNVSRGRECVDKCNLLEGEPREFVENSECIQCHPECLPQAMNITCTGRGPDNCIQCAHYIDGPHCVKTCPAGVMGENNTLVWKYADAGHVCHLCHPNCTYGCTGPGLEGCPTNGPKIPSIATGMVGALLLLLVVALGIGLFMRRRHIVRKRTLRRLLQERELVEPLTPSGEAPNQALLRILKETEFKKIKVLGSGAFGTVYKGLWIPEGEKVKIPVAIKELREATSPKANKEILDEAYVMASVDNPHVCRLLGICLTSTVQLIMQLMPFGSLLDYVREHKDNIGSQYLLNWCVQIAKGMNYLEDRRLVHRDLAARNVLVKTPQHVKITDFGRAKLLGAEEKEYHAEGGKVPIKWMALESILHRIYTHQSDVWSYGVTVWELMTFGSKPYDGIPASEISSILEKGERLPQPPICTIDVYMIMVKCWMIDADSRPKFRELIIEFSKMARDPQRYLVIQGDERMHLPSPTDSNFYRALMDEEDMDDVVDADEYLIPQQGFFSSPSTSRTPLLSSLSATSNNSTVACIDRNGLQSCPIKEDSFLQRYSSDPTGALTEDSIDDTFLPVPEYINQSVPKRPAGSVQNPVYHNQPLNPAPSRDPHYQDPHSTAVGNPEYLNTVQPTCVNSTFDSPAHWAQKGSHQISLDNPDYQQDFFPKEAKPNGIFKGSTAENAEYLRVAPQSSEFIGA

SMILES	pIC50
CN(C)CCc1ccc(-c2cc(Cl)c3cn(C(C(=O)Nc4nccs4)c4ncn5c4C[C@@H](F)C5)nc3c2Cl)cc1 (stereo partly drawn) [Example 35, 2-(4,7-Dichloro-6-(4-(2-(dimethylamino)ethyl)phenyl)-2H-indazol-2-yl)-2-((R)-6-fluoro-6,7-dihydro-5H-pyrrolo[1,2-c]imidazol-1-yl)-N-(thiazol-2-yl)acetamide]	8.22
CCc1cc(-c2cc(Cl)c3cn(C(C(=O)Nc4nccs4)c4ncn5c4C[C@@H](F)C5)nc3c2Cl)ccc1OCCN(C)C (stereo partly drawn) [Example 40, 2-(4,7-Dichloro-6-(4-(2-(dimethylamino)ethoxy)-3-ethylphenyl)-2H-indazol-2-yl)-2-((R)-6-fluoro-6,7-dihydro-5H-pyrrolo[1,2-c]imidazol-1-yl)-N-(thiazol-2-yl)acetamide]	8.10
O=C(Nc1nccs1)C(c1ncn2c1C[C@@H](F)C2)n1cc2c(Cl)cc(-c3ccc(OCCN4CCCC4)cc3)c(Cl)c2n1 (stereo partly drawn) [Example 42, 2-(4,7-Dichloro-6-(4-(2-(pyrrolidin-1-yl)ethoxy)phenyl)-2H-indazol-2-yl)-2-((R)-6-fluoro-6,7-dihydro-5H-pyrrolo[1,2-c]imidazol-1-yl)-N-(thiazol-2-yl)acetamide]	7.92
CCN1C[C@H]2CC(c3ccc(-c4cc(Cl)c5cn(C(C(=O)Nc6nccs6)c6ncn7c6C[C@@H](F)C7)nc5c4Cl)cc3)C[C@H]2C1 (stereo partly drawn) [Example 43, 2-(4,7-Dichloro-6-(4-((3aR,6aS)-2-ethyloctahydrocyclopenta[c]pyrrol-5-yl)phenyl)-2H-indazol-2-yl)-2-((R)-6-fluoro-6,7-dihydro-5H-pyrrolo[1,2-c]imidazol-1-yl)-N-(thiazolyl)acetamide]	7.96
CC(F)CN1CCC(c2ccc(-c3cc(Cl)c4cn(C(C(=O)Nc5nccs5)c5ncn6c5C[C@@H](F)C6)nc4c3Cl)cc2)CC1 (stereo partly drawn) [Example 44, 2-(4,7-Dichloro-6-(4-(1-(2-fluoropropyl)piperidin-4-yl)phenyl)-2H-indazol-2-yl)-2-((R)-6-fluoro-6,7-dihydro-5H-pyrrolo[1,2-c]imidazol-1-yl)-N-(thiazol-2-yl)acetamide]	7.89
COCCN1CCC(c2ccc(-c3cc(Cl)c4cn(C(C(=O)Nc5nccs5)c5ncn6c5C[C@@H](F)C6)nc4c3Cl)cc2)CC1 (stereo partly drawn) [Example 45, 2-(4,7-Dichloro-6-(4-(1-(2-methoxyethyl)piperidin-4-yl)phenyl)-2H-indazol-2-yl)-2-((R)-6-fluoro-6,7-dihydro-5H-pyrrolo[1,2-c]imidazol-1-yl)-N-(thiazol-2-yl)acetamide]	8.40
O=C(Nc1nccs1)C(c1ncn2c1C[C@@H](F)C2)n1cc2c(Cl)cc(-c3ccc(CN4CCC(F)(CO)CC4)cc3)c(Cl)c2n1 (stereo partly drawn) [Example 65, 2-(4,7-Dichloro-6-(4-((4-fluoro-4-(hydroxymethyl)piperidin-1-yl)methyl)phenyl)-2H-indazol-2-yl)-2-((R)-6-fluoro-6,7-dihydro-5H-pyrrolo[1,2-c]imidazol-1-yl)-N-(thiazol-2-yl)acetamide]	8.40
O=C(Nc1nccs1)C(c1ncn2c1C[C@@H](F)C2)n1cc2c(Cl)cc(-c3ccc(N4CC5(CCNCC5)C4)cc3)c(Cl)c2n1 (stereo partly drawn) [Example 69, 2-(6-(4-(2,7-Diazaspiro[3.5]nonan-2-yl)phenyl)-4,7-dichloro-2H-indazol-2-yl)-2-((R)-6-fluoro-6,7-dihydro-5H-pyrrolo[1,2-c]imidazol-1-yl)-N-(thiazol-2-yl)acetamide]	8.40
CCN1CCCC2(C1)CN(c1ccc(-c3cc(Cl)c4cn(C(C(=O)Nc5nccs5)c5ncn6c5C[C@@H](F)C6)nc4c3Cl)cc1)C2 (stereo partly drawn) [Example 73, 2-(4,7-Dichloro-6-(4-(6-ethyl-2,6-diazaspiro[3.5]nonan-2-yl)phenyl)-2H-indazol-2-yl)-2-((R)-6-fluoro-6,7-dihydro-5H-pyrrolo[1,2-c]imidazol-1-yl)-N-(thiazol-2-yl)acetamide]	8.00
O=C(Nc1nccs1)C(c1ncn2c1C[C@@H](F)C2)n1cc2c(Cl)cc(-c3ccc(CN4CCC(CCO)CC4)cc3)c(Cl)c2n1 (stereo partly drawn) [Example 78, 2-(4,7-Dichloro-6-(4-((4-(2-hydroxyethyl)piperidin-1-yl)methyl)phenyl)-2H-indazol-2-yl)-2-((R)-6-fluoro-6,7-dihydro-5H-pyrrolo[1,2-c]imidazol-1-yl)-N-(thiazol-2-yl)acetamide]	8.52
CN(CCN1CCC(CO)CC1)c1ccc(-c2cc(Cl)c3cn(C(C(=O)Nc4nccs4)c4ncn5c4C[C@@H](F)C5)nc3c2Cl)cc1 (some centres unmarked) [Example 79]	8.15
CN(CCN1CCC(O)CC1)c1ccc(-c2cc(Cl)c3cn(C(C(=O)Nc4nccs4)c4ncn5c4C[C@@H](F)C5)nc3c2Cl)cc1 (some centres unmarked) [Example 80]	8.10
CCN1C[C@@H]2CN(c3ccc(-c4cc(Cl)c5cn(C(C(=O)Nc6nccs6)c6ncn7c6C[C@@H](F)C7)nc5c4Cl)cc3)C[C@@H]2C1 (stereo partly drawn) [Example 81, 2-(4,7-Dichloro-6-(4-((3aR,6aS)-5-ethylhexahydropyrrolo[3,4-c]pyrrol-2(1H)-yl)phenyl)-2H-indazol-2-yl)-2-((R)-6-fluoro-6,7-dihydro-5H-pyrrolo[1,2-c]imidazol-1-yl)-N-(thiazol-2-yl)acetamide]	8.05
CCN1CC2(CCCN(c3ccc(-c4cc(Cl)c5cn(C(C(=O)Nc6nccs6)c6ncn7c6C[C@@H](F)C7)nc5c4Cl)cc3)C2)C1 (some centres unmarked) [Example 82]	7.96
CCN1CC(c2ccc(-c3cc(Cl)c4cn(C(C(=O)Nc5nccs5)c5ncn6c5C[C@@H](F)C6)nc4c3Cl)cc2)C1 (stereo partly drawn) [Example 83, 2-(4,7-Dichloro-6-(4-(1-ethylazetidin-3-yl)phenyl)-2H-indazol-2-yl)-2-((R)-6-fluoro-6,7-dihydro-5H-pyrrolo[1,2-c]imidazol-1-yl)-N-(thiazol-2-yl)acetamide]	8.00
O=C(Nc1nccs1)C(c1ncn2c1C[C@@H](F)C2)n1cc2c(Cl)cc(-c3ccc(C4CN(CCO)C4)cc3)c(Cl)c2n1 (stereo partly drawn) [Example 84, 2-(4,7-Dichloro-6-(4-(1-(2-hydroxyethyl)azetidin-3-yl)phenyl)-2H-indazol-2-yl)-2-((R)-6-fluoro-6,7-dihydro-5H-pyrrolo[1,2-c]imidazol-1-yl)-N-(thiazol-2-yl)acetamide]	7.92
CN1CCC(Oc2ccc(-c3cc(Cl)c4cn(C(C(=O)Nc5nccs5)c5ncn6c5C[C@@H](F)C6)nc4c3Cl)cc2)CC1 (stereo partly drawn) [Example 85, 2-(4,7-Dichloro-6-(4-((l-methylpiperidin-4-yl)oxy)phenyl)-2H-indazol-2-yl)-2-((R)-6-fluoro-6,7-dihydro-5H-pyrrolo[1,2-c]imidazol-1-yl)-N-(thiazol-2-yl)acetamide]	8.40
O=C(Nc1nccs1)C(c1ncn2c1C[C@@H](F)C2)n1cc2c(Cl)cc(-c3ccc(OCCN4CC5(CC(O)C5)C4)cc3)c(Cl)c2n1 (stereo partly drawn) [Example 88, 2-(4,7-Dichloro-6-(4-(2-(6-hydroxy-2-azaspiro[3.3]heptan-2-yl)ethoxy)phenyl)-2H-indazol-2-yl)-2-((R)-6-fluoro-6,7-dihydro-5H-pyrrolo[1,2-c]imidazol-1-yl)-N-(thiazol-2-yl)acetamide]	8.15
CN(CCN1CC(CO)C1)c1ccc(-c2cc(Cl)c3cn(C(C(=O)Nc4nccs4)c4ncn5c4C[C@@H](F)C5)nc3c2Cl)cc1 (some centres unmarked) [Example 89]	8.00
CN(CCN1CC(O)C1)c1ccc(-c2cc(Cl)c3cn(C(C(=O)Nc4nccs4)c4ncn5c4C[C@@H](F)C5)nc3c2Cl)cc1 (some centres unmarked) [Example 90]	7.92
O=C(Nc1nccs1)C(c1ncn2c1C[C@@H](F)C2)n1cc2c(Cl)cc(-c3ccc(N4CCN5C[C@H](O)C[C@H]5C4)cc3)c(Cl)c2n1 (stereo partly drawn) [Example 93, 2-(4,7-Dichloro-6-(4-((7R,8aS)-7-hydroxyhexahydropyrrolo[1,2-a]pyrazin-2(1H)-yl)phenyl)-2H-indazol-2-yl)-2-((R)-6-fluoro-6,7-dihydro-5H-pyrrolo[1,2-c]imidazol-1-yl)-N-(thiazol-2-yl)acetamide]	8.22
O=C(Nc1nccs1)C(c1ncn2c1CCC2)n1cc2c(Cl)cc(-c3ccc(C4CCN(CCF)CC4)cc3)c(Cl)c2n1 (centres unmarked) [Example 103, 2-(4,7-Dichloro-6-(4-(1-(2-fluoroethyl)piperidin-4-yl)phenyl)-2H-indazol-2-yl)-2-(6,7-dihydro-5H-pyrrolo[1,2-c]imidazol-1-yl)-N-(thiazol-2-yl)acetamide]	7.70
CCN1CCC(c2ccc(-c3cc(Cl)c4cn(C(C(=O)Nc5nccs5)c5ncn6c5CCC6)nc4c3Cl)cc2)CC1 (centres unmarked) [Example 104, 2-(4,7-Dichloro-6-(4-(1-ethylpiperidin-4-yl)phenyl)-2H-indazol-2-yl)-2-(6,7-dihydro-5H-pyrrolo[1,2-c]imidazol-1-yl)-N-(thiazol-2-yl)acetamide]	7.92
Cc1c(-c2ccc(N3CCOCC3)cc2)cc(Cl)c2cn(C(C(=O)Nc3nccs3)c3ncn4c3C[C@@H](F)C4)nc12 (stereo partly drawn) [Example 105, 2-(4-Chloro-7-methyl-6-(4-morpholinophenyl)-2H-indazol-2-yl)-2-((R)-6-fluoro-6,7-dihydro-5H-pyrrolo[1,2-c]imidazol-1-yl)-N-(thiazol-2-yl)acetamide]	8.10
Cc1cc(-c2ccc(N3CCOCC3)cc2)c(C)c2nn(C(C(=O)Nc3nccs3)c3ncn4c3C[C@@H](F)C4)cc12 (stereo partly drawn) [Example 118, 2-(4,7-Dimethyl-6-(4-morpholinophenyl)-2H-indazol-2-yl)-2-((R)-6-fluoro-6,7-dihydro-5H-pyrrolo[1,2-c]imidazol-1-yl)-N-(thiazol-2-yl)acetamide]	8.15
CCN1CCC(c2ccc(-c3cc(C)c4cn(C(C(=O)Nc5nccs5)c5ncn6c5C[C@@H](F)C6)nc4c3C)cc2)CC1 (stereo partly drawn) [Example 120, 2-(6-(4-(1-Ethylpiperidin-4-yl)phenyl)-4,7-dimethyl-2H-indazol-2-yl)-2-((R)-6-fluoro-6,7-dihydro-5H-pyrrolo[1,2-c]imidazol-1-yl)-N-(thiazol-2-yl)acetamide]	7.82
